Structures are written as SMILES.

This series in a line: Human HepG2 cell viability assay in 384 well format. Particulars: HepG2 cells, read-out: Inhibition. It counts as toxicity, cell-based. On the set-up: dose 125 nL, time 70.5 hour; cytotoxicity at 70.5 h: concentration not given beside the values.
Take `CCc1ccc(CN(C)Cc2nc(COc3ccccc3)no2)nc1`: the cytotoxicity at 70.5 h is -7.21%. In the case of `O=C(NCCn1cccn1)C1CCC(=O)N(CC2CCCCC2)C1` (stereo not drawn), the cytotoxicity at 70.5 h is 18%. In the case of `CCn1cc(C(=O)NCc2cccnc2N(C)Cc2ccccc2)cn1` it was 2.58%.

Consider `COCCC(=O)N1CCCC(CCC(=O)NCc2cccc(OC)c2)C1` (stereo not drawn), for which the cytotoxicity at 70.5 h is 20.8%. With `CN(Cc1cc(-c2cccnc2)no1)C(=O)c1cccn1C`, the cytotoxicity at 70.5 h was determined as 0.783%. Turning to `CC(C(=O)O)N1CC2(CCC1=O)CCN(C/C=C/c1ccccc1)CC2` (stereo not drawn), the cytotoxicity at 70.5 h was -7.03%.

Take `COCc1ncc(-c2nccn2CCN(C)C)cn1`: the cytotoxicity at 70.5 h was -2.63%. Consider `O=S(=O)(N1CCOCC1)N1CCOC(CCCc2ccccc2)C1` (stereo not drawn), for which the cytotoxicity at 70.5 h was -11.2%. In the case of `COc1cc(C2CC(=O)Nc3c2nc2n3CCCC2)cc2c1OCO2` (stereo not drawn) it was -12%. Take `O=C(NCC1CCCO1)c1ccc(S(=O)(=O)NCCc2cn[nH]c2)cc1` (stereo not drawn): the cytotoxicity at 70.5 h was -4.87%. On to `Cc1nn(C)cc1C(=O)N1CCCC(c2nccn2CC2CCC2)C1` (stereo not drawn), for which the cytotoxicity at 70.5 h was -28.4%. As to `O=C1NCC2(CCN(C(=O)c3ccc4c(c3)CCCO4)CC2)O1`, the cytotoxicity at 70.5 h is -1.35%. `CC(C)Oc1cc(N2C[C@H](C3CC3)[C@@H](N)C2)nc(N)n1`: the cytotoxicity at 70.5 h was -25.3%.

With `c1cc(CN2CCC(c3ccncc3)CC2)cc(Cn2cccn2)c1`, the cytotoxicity at 70.5 h was -1.99%.

On to `CC(CN1CCC2(CC1)N=C(N(C)C)NC2=O)c1ccccc1` (stereo not drawn), for which the cytotoxicity at 70.5 h is -12.1%. On to `Cc1ccc(C)c2c(O)cc(CN3CCC(c4nncn4C)CC3)nc12`, for which the cytotoxicity at 70.5 h was found to be 0.0856%.

In the case of `O=C(c1cc(COc2ccc3c(c2)OCO3)[nH]n1)N1CCCC(O)C1` (stereo not drawn), the cytotoxicity at 70.5 h was determined as 0.249%. For `Cc1ncsc1CCN(C)C(=O)CN1CCOc2ccccc2C1`, the cytotoxicity at 70.5 h was 0.856%.

As to `Cc1ccc(C(C(=O)N2CCN(C(=O)c3ccc[nH]3)CC2)N(C)C)cc1` (stereo not drawn), the cytotoxicity at 70.5 h is -3.84%. In the case of `Cc1nccn1C1(C(=O)O)CCN(Cc2ccc3occc3c2)CC1`, the cytotoxicity at 70.5 h was -7.56%. As to `CCc1csc(CNCC(=O)Nc2ccc(Cl)c(C)c2)n1`, the cytotoxicity at 70.5 h is -6.59%. Next, `C=C(C)COc1cccc(CNC(CC)c2ccnn2C)c1` (stereo not drawn): 1.1%; `CCC[C@H]1CN(Cc2ccc(N(C)C)nc2)C[C@@H]1NC(=O)CCOC`: -10.3%. In the case of `Cn1c(N2CCOCC2)nc2cc(C(=O)NCC(F)(F)F)ccc21` it was -9.13%; in that of `CCc1ccccc1OC1CN(C(=O)c2sccc2N)C1`, -3.46%; in that of `O=C(O)c1cc(-c2ccncc2F)cc(S(=O)(=O)N2CCCCCC2)c1`, -23.6%. In the case of `CC(C)Oc1cccc(F)c1C(C(=O)O)N1CCCN(C)CC1` (stereo not drawn) it was 26.8%. `COCC1CCCCN1Cc1nc(-c2ccoc2)oc1C` (stereo not drawn): the cytotoxicity at 70.5 h is -1.54%.

Turning to `CN(C)Cc1cc(-c2nccn2CCc2cccnc2)ccc1O`, the cytotoxicity at 70.5 h was -5.02%. In the case of `Cc1ccccc1C(=O)NC[C@@H]1CCN(C(=O)C2(O)CCCC2)C[C@H]1O`, the cytotoxicity at 70.5 h is -4.64%.

With `CN(Cc1cc2cc(F)ccc2[nH]1)c1cc(C2CCCNC2)ncn1` (stereo not drawn), the cytotoxicity at 70.5 h was -0.169%. As for `Cc1ncsc1C(=O)N1CCCC(c2nccn2Cc2cscn2)C1` (stereo not drawn), the cytotoxicity at 70.5 h was -5.99%. Consider `CC1CCCCN1CCN(C)C(=O)c1cc(CN2CCC(O)CC2)on1` (stereo not drawn), for which the cytotoxicity at 70.5 h was -0.898%. On to `Cc1cccc(C(C(=O)NCCn2cccc2)N(C)C)c1` (stereo not drawn), for which the cytotoxicity at 70.5 h is -12.1%. In the case of `CSc1ccccc1C(=O)C1CCCN(Cc2cc(C(C)C)[nH]n2)C1` (stereo not drawn), the cytotoxicity at 70.5 h is -6.68%. Regarding `OC[C@H]1CCN(Cc2ccc3ccccc3n2)C[C@@H]1O`, the cytotoxicity at 70.5 h is -4.84%. As to `CNS(=O)(=O)c1ccc(CN2CCN(Cc3ncccc3C)CC2)cc1`, the cytotoxicity at 70.5 h was -15.3%. Turning to `O=C(CCc1nc(Cl)n[nH]1)N1CCC2(CCCNC2=O)C1` (stereo not drawn), the cytotoxicity at 70.5 h is 4.11%. As for `Cc1cc(CN2CCCC2)cc(Oc2nc(C)cnc2C)c1`, the cytotoxicity at 70.5 h is -5.62%. In the case of `CN1CCC2(CCN(S(=O)(=O)c3ccc(-c4cnco4)s3)CC2)C1` it was -8.53%; in that of `COc1cc2[nH]c(=O)c(CN3CCCC(CO)C3)cc2c(OC)c1OC` (stereo not drawn), -13.1%. Consider `CCc1cnc(N)nc1N1CCCC2(CCOCC2)C1`, for which the cytotoxicity at 70.5 h was -3.13%. Consider `Cc1nonc1N1CCN(Cc2nc(CC3CC3)no2)CC1`, for which the cytotoxicity at 70.5 h is -2.56%. Regarding `CCOc1ccc2[nH]c(=O)c(CN3CCC(n4cnnc4)CC3)cc2c1`, the cytotoxicity at 70.5 h was -4.91%.

Regarding `CC(C)c1cc(C2CCCN2Cc2nc(-c3ccco3)no2)no1` (stereo not drawn), the cytotoxicity at 70.5 h is -2.57%. `CCc1c(C)sc2ncnc(N3CC[C@@H](N4CCC(O)CC4)[C@H](O)C3)c12`: the cytotoxicity at 70.5 h is -10.6%.

With `CC(=O)NCc1nc(CC(C)C)nn1-c1cccc(C)c1`, the cytotoxicity at 70.5 h is -2.35%. With `COCc1noc(Cn2c(=O)[nH]c3ccccc32)n1`, the cytotoxicity at 70.5 h was -10.2%. In the case of `CO[C@H]1CN(C(=O)c2cc3ccccc3[nH]2)CC[C@H]1N` it was 18.2%. As for `CC(C)CN1CC2(CCN(C(=O)C3CSC(C)(C)C(=O)N3)CC2)CC1=O` (stereo not drawn), the cytotoxicity at 70.5 h was -1.86%. Next, `CC(=O)N1CCN(C(=O)c2cc(C(C)C)no2)[C@H]2CS(=O)(=O)C[C@H]21`: -3.64%; `CSc1ncc(C(=O)N2CCC(O)(CN3CCOCC3)C(C)(C)C2)cn1` (stereo not drawn): -0.923%.

For `CCc1ncc(C(=O)N2CCC(O)(CN3CCOCC3)C(C)(C)C2)cn1` (stereo not drawn), the cytotoxicity at 70.5 h is -0.715%. In the case of `CCCc1nc(C(=O)N2CCN(C(=O)c3ccc(OC)cc3)CC2)cs1` it was -5.88%. As to `O=C(c1ccco1)N1CCN(Cc2nc(C3CC3)no2)CC1`, the cytotoxicity at 70.5 h is -5.91%.

Regarding `CN(CC(=O)N1CCC(OCc2cccnc2)CC1)c1ccccc1`, the cytotoxicity at 70.5 h is -17.1%. Consider `COc1ccccc1N1CCN(C(=O)CCCS(N)(=O)=O)C(C)C1` (stereo not drawn), for which the cytotoxicity at 70.5 h is -5.3%. Next, `COc1ccc(N2CCC(N3CCOC(C(F)(F)F)C3)CC2)cc1` (stereo not drawn): -7.02%. `O=S(=O)(N1CCOCC1)N1CCCCC1CCn1cccn1` (stereo not drawn): the cytotoxicity at 70.5 h turned out to be 3.71%.

As for `CC(C)[C@@H]1CN(C(=O)CN(C)Cc2ccc(F)cc2)C[C@H]1C(=O)O`, the cytotoxicity at 70.5 h is -1.04%.

Regarding `Cc1nn(C)c(C)c1CN(Cc1cccn1-c1cccnc1)C(C)C`, the cytotoxicity at 70.5 h came out at 11.8%. `COc1ccc(Cn2c(Cc3c(C)n[nH]c3C)n[nH]c2=O)cc1`: the cytotoxicity at 70.5 h was -12.9%.

Regarding `CN(CCc1noc(C2CC2)n1)C(=O)CN1C(=O)COc2ccccc21`, the cytotoxicity at 70.5 h is -4.64%.

As to `CCCc1nc(C)c(CN2CC3(CCOC3)CCC2=O)s1` (stereo not drawn), the cytotoxicity at 70.5 h is -8.32%.

For the compound `O=C(O)c1cccnc1CN(Cc1ccsc1)C1CC1`, the cytotoxicity at 70.5 h is -6.7%.

As to `CCN(CCOC)C(=O)c1cc(COc2ccc3c(c2)CCCC3)on1`, the cytotoxicity at 70.5 h was -3.35%. For `Cc1ccccc1C(CC(=O)NCC(N)=O)c1ccccc1` (stereo not drawn), the cytotoxicity at 70.5 h is -5.12%.

On to `COCCC(=O)N1CCCC(CCC(=O)NCc2ccccc2F)C1` (stereo not drawn), for which the cytotoxicity at 70.5 h is -6.55%. As to `CCOC(=O)c1coc(N2CCC(C(C)N3CCCC3)CC2)n1` (stereo not drawn), the cytotoxicity at 70.5 h is -1.58%.

With `CCC[C@H]1CN(CCS(C)(=O)=O)C[C@@H]1NC(=O)c1cc(CC)on1`, the cytotoxicity at 70.5 h is -2.15%. For `CN(C)Cc1nnc(C2CCCN(c3cc(C(F)(F)F)ccn3)C2)n1C` (stereo not drawn), the cytotoxicity at 70.5 h is -11.1%. Next, `Cc1ccc(CN2CCN(C3CCCC3)CC2CCO)o1` (stereo not drawn): 8.76%; `CC1(C)CN(Cc2nnc(-c3cccnc3)o2)CC[C@]1(C)O`: 8.67%. On to `CCC(C)(C)c1cc(-c2c(C)nn(CCO)c2C)c(C#N)c(N)n1`, for which the cytotoxicity at 70.5 h came to 12.5%. Next, `CN(C(=O)CCc1cccs1)C1CCCN(C2Cc3ccccc3C2)C1` (stereo not drawn): -1.24%.

Regarding `Cc1cnn(C(C)C2CC2)c1NC(=O)c1ncccc1O` (stereo not drawn), the cytotoxicity at 70.5 h amounted to 9.8%. Next, `CCOC(=O)N1CCC(Nc2cc(CC)nc3c(C)c(C)nn23)CC1`: -4.43%; `CNc1ncccc1C(=O)N1CCCC2(C1)C(=O)N(C)c1ccccc12` (stereo not drawn): -7.64%. In the case of `O=C(O)c1cccnc1CN1CCCCC1CCc1cccc(O)c1` (stereo not drawn) it was 9.13%; in that of `COCCN(Cc1cccc(O)c1)Cc1ccccc1F`, 1.04%; in that of `Cc1nc(NC(=O)N(C)Cc2ccsc2)nn1C`, -7.49%.

For `CCC1CN(C(=O)c2ccccc2C(C)=O)CCN1C(C)C` (stereo not drawn), the cytotoxicity at 70.5 h was -4.04%.

For the compound `CN(Cc1ccc(CCC(C)(C)O)cc1)Cc1cccc(O)c1`, the cytotoxicity at 70.5 h is -8.03%. Next, `COc1cc(N(C)CCC(O)c2ccccc2)ncn1` (stereo not drawn): -3.53%. With `CCCNC(=O)C(C)Oc1ccccc1` (stereo not drawn), the cytotoxicity at 70.5 h was -5.34%.

Turning to `Cc1cnc(C(=O)N[C@H]2CN(CCS(C)(=O)=O)C[C@@H]2C2CC2)cn1`, the cytotoxicity at 70.5 h worked out at 12.4%.

As to `COc1ccc2c(c1)OCC(CNC(=O)CCc1c(C)n[nH]c1C)C2` (stereo not drawn), the cytotoxicity at 70.5 h is -1.4%.

In the case of `C[C@@H]1CN(c2nc3c(cc2C(N)=O)CCC3)C[C@]1(C)O`, the cytotoxicity at 70.5 h is -15%. As to `CN(C)CCC(Nc1nc(N)nc2c1CCNCC2)c1ccccc1` (stereo not drawn), the cytotoxicity at 70.5 h was -8.45%. With `Cc1cc(C)nc(N2CCN(C(=O)c3ccc(C4CCCO4)s3)CC2)n1` (stereo not drawn), the cytotoxicity at 70.5 h was -11.5%.

Turning to `Cc1nn(C)c(C)c1CCC(=O)N(C)Cc1ccc2nsnc2c1`, the cytotoxicity at 70.5 h was -4.18%. On to `Cc1nn(C)c(C)c1-c1c(-c2ccccc2)ncn1[C@H](CO)C(=O)O`, for which the cytotoxicity at 70.5 h was -4.59%. In the case of `CN(C)c1nc2c(c(N3CCC4(CCCNC4=O)C3)n1)CCCC2` (stereo not drawn), the cytotoxicity at 70.5 h was found to be 8.69%.

Turning to `CCS(=O)(=O)CCNc1nc(C2CCCC2)nc2c1cnn2C`, the cytotoxicity at 70.5 h is -6.16%. Regarding `COCCCC1(C(=O)O)CCCN(Cc2cc3c(cc2C)OCCO3)C1` (stereo not drawn), the cytotoxicity at 70.5 h is -8.65%.

Consider `c1cc(-c2n[nH]c(CNc3nnc(C4CC4)o3)n2)ccn1`, for which the cytotoxicity at 70.5 h came to 0.716%.

`O=C1CC[C@H]2CN(Cc3cccnc3)CC[C@H]2N1CCc1c[nH]cn1`: the cytotoxicity at 70.5 h is -1.83%.

Regarding `Cc1csc(N2CCCN(C3Cc4ccccc4C3)CC2)n1`, the cytotoxicity at 70.5 h was -15.6%.

The values are drawn from ChEMBL document CHEMBL3507680, “University of Dundee, Gates Library screen for HepG2 cell viability”.
